Where “and” joins values, the source holds several entries; their conditions need not be identical. Equal entries are not always repeated.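 Briefly, cells in 96-well plates were exposed to five compound concentrations for 48 h, and endpoints were estimated by linear interpolation. GI50 marks 50% less growth. The concentration for full growth arrest is given as TGI.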 Where a SMILES comes first, the peptide text is derived from it. The star is where a group is joined. Palmitoyl = CCCCCCCCCCCCCCCC(=O)*
Experiments:
Assay in all cases: NCI-60 cell line screen, 48 h
[1] = test system: SR leukemia
[2] = test system: IGROV1 ovarian
[3] = test system: KM12 colon
[4] = test system: HT29 colon
[5] = test system: OVCAR-8 ovarian
[6] = test system: RXF 393 renal
[7] = test system: MDA-N
[8] = test system: NCI/ADR-RES ovarian
[9] = test system: ACHN renal
[10] = test system: OVCAR-4 ovarian

| Compound | TGI [1] | TGI [2] | TGI [3] | TGI [4] | TGI [5] | TGI [6] | TGI [7] | TGI [8] | TGI [9] | GI50 [1] | GI50 [2] | GI50 [10] | TGI [10] | GI50 [3] | GI50 [4] | GI50 [5] | GI50 [6] | GI50 [8] | GI50 [9] |
| --- | --- | --- | --- | --- | --- | --- | --- | --- | --- | --- | --- | --- | --- | --- | --- | --- | --- | --- | --- |
| c1ccc(C/C(=N\Nc2nc3ccccc3o2)c2ccccn2)cc1 | 2.05 µM | 0.609 µM | 6.67 µM | 4.56 µM | 1.42 µM | 1.92 µM | 5.13 µM | 0.0824 µM | 3.31 µM |  |  |  |  |  |  |  |  |  |  |
| CCCCCCCCCCCCCCCC(=O)NC(CCCCN)C(=O)NCC(=O)NC(Cc1ccccc1)C(=O)N1CCCC1C(=O)NC(CO)C(=O)NC(Cc1ccc(O)cc1)C(=O)NC(CCCCN)C(=O)NC(CC(C)C)C(=O)NC(CCCN=C(N)N)C(=O)N1CCCC1C(=O)NCC(N)=O (centres undefined) (Palmitoyl-KGFPSYKLRPG-NH2; configuration not given here) | 39.4 µM | 44.3 µM | 46.6 µM | 30.7 µM | 52.8 µM | 69.4 µM |  | 42.9 µM |  | 17.7 µM | 17.8 µM | 30.5 µM | 78.7 µM | 19.4 µM | 17 µM | 21.9 µM | 27.6 µM | 20.7 µM |  |
| COC(=O)c1ccc(OCc2ccc3nc(-c4ccccc4)c(Cl)nc3c2)cc1 | > 100 µM | > 100 µM | > 100 µM | > 100 µM | > 100 µM |  | > 100 µM | > 100 µM | > 100 µM |  |  |  | > 100 µM |  |  |  |  |  |  |
| Cc1cccc(N2CCN(S(=O)(=O)c3ccc(Cl)cc3)C2=N)c1C | > 100 µM | 99.3 µM | > 100 µM | > 100 µM | > 100 µM | > 100 µM | > 100 µM | > 100 µM | > 100 µM |  |  |  |  |  |  |  |  |  |  |
| C=C1C(=O)C[C@@]23CCC[C@@]12CC(O)C3 (some centres undefined) |  | 12.8 µM | 51.3 µM | 33.2 µM | > 100 µM | 33.8 µM |  | 42.8 µM |  |  |  |  | 36.2 µM |  |  |  |  |  |  |
| Cc1cnc2[nH]c(-c3ccccc3)cc(=O)c2c1 | > 100 µM | > 100 µM | 13.9 µM | 0.0732 µM | 0.629 µM |  | > 100 µM | 0.0447 µM | > 100 µM |  |  |  | > 100 µM |  |  |  |  |  |  |
| COc1ccc(CC2C(=O)NC(C)C(=O)N(C)C3Cc4ccc(cc4)Oc4cc(ccc4O)CC(C(=O)NC(C)C(=O)NC(C)C(=O)N2C)N(C)C3=O)cc1 (centres undefined) | 0.112 µM | 0.0203 µM | 0.127 µM | 0.0347 µM and 0.0161 µM and 0.152 µM | 0.144 µM and 0.0379 µM | 0.0731 µM |  | 78.6 µM | 45 µM |  | < 0.0001 µM | < 0.0001 µM | 0.523 µM and 0.131 µM and 0.088 µM | < 0.0001 µM | < 0.0001 µM | 0.00034 µM |  | 15.2 µM | 0.45 µM |
| COC(=O)C1(Cc2ccccc2)Cc2ccccc2C1=O (centres undefined) | 78.3 µM | > 100 µM | > 100 µM | > 100 µM | > 100 µM |  | 94.6 µM | 72.3 µM | > 100 µM |  |  |  | > 100 µM |  |  |  |  |  |  |
| C=C(CCC(C(=O)O)C1CCC2(C)C3=C(CCC12C)C1(C)CCC(O)C(C)(C)C1CC3)C(C)C (centres undefined) | 27.2 µM | 63.1 µM | 22.6 µM | > 100 µM | 47.2 µM |  | > 100 µM | 70.5 µM | > 100 µM |  |  |  | > 100 µM |  |  |  |  |  |  |
| NC(CO)c1ccccc1 (centres undefined) | > 100 µM | > 100 µM | > 100 µM | > 100 µM | > 100 µM | > 100 µM |  |  | > 100 µM |  |  |  | > 100 µM |  |  |  |  |  |  |
| CN(C)CCNc1nc2ccccc2c2c1C(=O)c1ccccc1-2 |  | 0.807 µM | 2.11 µM | 3.5 µM | 2.26 µM | 1.13 µM | 1.39 µM | 2.06 µM | 0.601 µM |  |  |  | 1.41 µM |  |  |  |  |  |  |
| C=CCOn1c(C=C)nc2c(C)cccc21 | 12.6 µM | 22.7 µM | 13 µM | 11.6 µM | > 100 µM |  | 11.4 µM |  | 7.15 µM |  |  |  | 24 µM |  |  |  |  |  |  |
| COc1ccccc1OC/C(N=Cc1ccncc1)=N/NC(=O)c1ccncc1 |  | > 100 µM | > 100 µM | > 100 µM | > 100 µM | > 100 µM | > 100 µM | > 100 µM | > 100 µM |  |  |  | > 100 µM |  |  |  |  |  |  |
| COc1cccc(N2N=C3c4ccccc4-n4c(nc5ccccc54)C3C2N)c1 (centres undefined) | > 100 µM | > 100 µM | > 100 µM | > 100 µM | > 100 µM |  | > 100 µM | > 100 µM | > 100 µM |  |  |  | > 100 µM |  |  |  |  |  |  |
| CC(=O)c1c(O)c(C)c(O)c2c1OC1=CC(=O)C(C(C)=O)C(=O)C12C (centres undefined) |  | 38.5 µM and 75.4 µM | 32.2 µM and 63.5 µM | 29.3 µM and 70.2 µM | 22.3 µM and 52.2 µM | 22.8 µM and 43.8 µM |  | 13.5 µM and 55.7 µM |  |  | 5.63 µM and 17.9 µM | 5.28 µM and 9.79 µM | 61.3 µM and 35.1 µM | 6.21 µM and 19 µM | 6.28 µM and 25.7 µM | 4.84 µM and 14.1 µM | 5.72 µM and 19.2 µM | 4.05 µM and 16.7 µM |  |
| CCN(CC)c1ccc(C(=C2C=CC(=[N+](CC)CC)C=C2)c2ccccc2)cc1 | 0.0791 µM | 0.247 µM | 0.124 µM |  |  | 0.0989 µM |  |  | 0.145 µM |  |  |  | 0.488 µM |  |  |  |  |  |  |
| CCOc1ccc(NC(=S)/N=C/C(C(=O)Nc2ccccc2C)=C(\C)O)cc1 |  | > 100 µM | > 100 µM | > 100 µM | > 100 µM | > 100 µM | > 100 µM | > 100 µM | > 100 µM |  |  |  | > 100 µM |  |  |  |  |  |  |
| Cc1ccc(C2=Nn3c(nc4sc(-c5ccccc5)cc4c3=O)SC2)cc1 | > 100 µM | > 100 µM | > 100 µM | > 100 µM | > 100 µM |  | > 100 µM | > 100 µM | > 100 µM |  |  |  | > 100 µM |  |  |  |  |  |  |
| CN(C)CCNC(=O)c1cccc2c(NC(CS)C(=O)O)c3ccccc3nc12 (centres undefined) | > 100 µM | 28 µM | > 100 µM | 52.3 µM | > 100 µM |  | 20 µM | > 100 µM | 59.8 µM |  |  |  | > 100 µM |  |  |  |  |  |  |
| C/C(=N\O)c1ccc(Nc2c3ccccc3nc3occc23)cc1 |  | 8.59 µM | 27.4 µM | 0.72 µM | 7.34 µM | 0.614 µM | > 50 µM | 0.484 µM | > 50 µM |  |  |  | > 12.2 µM |  |  |  |  |  |  |
| C=C1C(=O)O[C@H]2C(=O)[C@H](C)CCC[C@@](C)(O)/C=C\C[C@@]3(C)O[C@@H]3C[C@@H]12 |  | 41.6 µM | 39.3 µM | 28.4 µM | 48 µM |  | 34.8 µM | > 100 µM | 20.5 µM |  |  |  |  |  |  |  |  |  |  |

— PubChem BioAssay (NCI)
